From patent US20250250287A1, “HETEROCYCLIC COMPOUNDS, COMPOSITIONS THEREOF, AND METHODS OF TREATMENT THEREWITH” (BeiGene Switzerland GmbH, priority 2022, published 2025)

system: pERK1/2(THR202/TYR204) level in SW620 cell line (KRAS G12V); test: KRAS G12V pERK assay (HTRF) in SW620 cell line; type: cell-based; details: Homo sapiens, SW-620, 2 h, SW620 cells, 2 hrs compound treatment
Method: SW620 cell line was used in this study. Cells were maintained in RPMI 1640 supplemented with 10% fetal bovine serum (Thermo Fisher), 50 units/mL penicillin and streptomycin (Thermo Fisher) and kept at 37° C. in a humidified atmosphere of 5% CO2 in air. Cells were reinstated from frozen stocks that were laid down within 30 passages from the original cells purchased. 40000 cells per well were seeded into a 96-well plate and incubated overnight. Cells were treated with a 10-point dilution series. The final compound concentration is from 0 to 10 μM. After 2 hrs compound treatment, cells were lysed, and the pERK1/2(THR202/TYR204) level in the cell lysates was detected by HTRF kit (Cisbio). In brief, a total of 16 μL of cell lysate from each well of a 96-well plate was transferred to a 384-well white assay plate. Lysate from each well was incubated with 2 μL of Eu3+-cryptate (donor) labeled anti-phospho-ERK1/2 and 2 μL of D2 (acceptor) labeled anti-phospho-ERK1/2 antibodies (Cisbio) overnight in dark at room temperature. When donor and acceptor are in close proximity, excitation of the donor with laser triggers a Fluorescence Resonance Energy Transfer (FRET) towards the acceptor, which in turn fluoresces at 655 nm wavelength. FRET signals were measured using a PHERAstar FSX reader (BMG Labtech). IC50 determination was performed by fitting the curve of percent inhibition versus the log of the inhibitor concentration using Dotmatics.

Compound	IC50 [nM]
C#Cc1c(F)ccc2cc(O)cc(-c3nc4c5c(nc(OC[C@@]67CCCN6C[C@H](F)C7)nc5c3F)N3[C@H](CO4)C[C@@H]4C[C@@H]43)c12 [Example 32, 5-ethynyl-6-fluoro-4-((5aS,6aS,7aS)-1-fluoro-9-(((2R,7aS)-2-fluorotetrahydro-1H-pyrrolizin-7a(5H)-yl)methoxy)-5,5a,6,6a,7,7a-hexahydro-4-oxa-3,7b,8,10-tetraazacyclopropa[a]naphtho[1,8-gh]azulen-2-yl)naphthalen-2-ol]	26
N#Cc1c(N)sc2c(F)ccc(-c3c(Cl)c4c5c(nc(OC[C@@]67CCCN6C[C@H](F)C7)nc5c3F)N3C[C@H](O)C[C@H]3CO4)c12 [Example 29, 2-amino-4-((2R,12aS)-10-chloro-8-fluoro-6-(((2R,7aS)-2-fluorotetrahydro-1H-pyrrolizin-7a(5H)-yl)methoxy)-2-hydroxy-2,3,12,12a-tetrahydro-1H-pyrrolo[2′,1′:3,4][1,4]oxazepino[5,6,7-de]quinazolin-9-yl)-7-fluorobenzo[b]thiophene-3-carbonitrile]	91
Nc1cc(Cl)c(C(F)(F)F)c(-c2nc3c4c(nc(OC[C@@]56CCCN5C[C@H](F)C6)nc4c2F)N2CCCC[C@H]2CO3)c1 [Example 15, 3-chloro-5-((S)-1-fluoro-11-(((2R,7aS)-2-fluorotetrahydro-1H-pyrrolizin-7a(5H)-yl)methoxy)-5,5a,6,7,8,9-hexahydro-4-oxa-3,9a,10,12-tetraazabenzo[4,5]cyclohepta[1,2,3-de]naphthalen-2-yl)-4-(trifluoromethyl)aniline]	187
C#Cc1c(F)ccc2cc(O)cc(-c3nc4c5c(nc(OC[C@@]67CCCN6C[C@H](F)C7)nc5c3F)N3CCC[C@H]3CO4)c12 [Example 10, 5-ethynyl-6-fluoro-4-((S)-7-fluoro-5-(((2R,7aS)-2-fluorotetrahydro-1H-pyrrolizin-7a(5H)-yl)methoxy)-2,3,11,11a-tetrahydro-1H-10-oxa-3a,4,6,9-tetraazanaphtho[1,8-ef]azulen-8-yl)naphthalen-2-ol]	43
Nc1cc(Cl)c(C(F)(F)F)c(-c2nc3c4c(nc(OC[C@@]56CCCN5C[C@H](F)C6)nc4c2F)N2CCC[C@@H]2CCO3)c1 [Example 11, 3-chloro-5-((R)-7-fluoro-5-(((2R,7aS)-2-fluorotetrahydro-1H-pyrrolizin-7a(5H)-yl)methoxy)-1,2,3,11,12,12a-hexahydro-10-oxa-3a,4,6,9-tetraazacyclopenta[4,5]cycloocta[1,2,3-de]naphthalen-8-yl)-4-(trifluoromethyl)aniline]	66
CC1Oc2nc(-c3cc(N)cc(Cl)c3C(F)(F)F)c(F)c3nc(OC[C@@]45CCCN4C[C@H](F)C5)nc(c23)N2CCC[C@@H]12 (stereo partly drawn) [Example 24, 3-chloro-5-((11aS)-7-fluoro-5-(((2R,7aS)-2-fluorotetrahydro-1H-pyrrolizin-7a(5H)-yl)methoxy)-11-methyl-2,3,11,11a-tetrahydro-1H-10-oxa-3a,4,6,9-tetraazanaphtho[1,8-ef]azulen-8-yl)-4-(trifluoromethyl)aniline]	121
N#Cc1c(N)sc2c(F)ccc(-c3c(Cl)c4c5c(nc(OC[C@@]67CCCN6C[C@H](F)C7)nc5c3F)N3CCC[C@H]3CO4)c12 [Example 27, 2-amino-4-((S)-10-chloro-8-fluoro-6-(((2R,7aS)-2-fluorotetrahydro-1H-pyrrolizin-7a(5H)-yl)methoxy)-2,3,12,12a-tetrahydro-1H-pyrrolo[2′,1′:3,4][1,4]oxazepino[5,6,7-de]quinazolin-9-yl)-7-fluorobenzo[b]thiophene-3-carbonitrile]	31
N#Cc1c(N)sc2c(F)ccc(-c3cc4c5c(nc(OC[C@@]67CCCN6C[C@H](F)C7)nc5c3F)N3CCC[C@@H]3CCO4)c12 [Example 5, 2-amino-7-fluoro-4-((R)-8-fluoro-6-(((2R,7aS)-2-fluorotetrahydro-1H-pyrrolizin-7a(5H)-yl)methoxy)-1,2,3,12,13,13a-hexahydropyrrolo[1′,2′:5,6][1,5]oxazocino[4,3,2-de]quinazolin-9-yl)benzo[b]thiophene-3-carbonitrile]	668
C[C@@H]1C[C@H]2COc3c(Cl)c(-c4ccc(F)c5sc(N)c(C#N)c45)c(F)c4nc(OC[C@@]56CCCN5C[C@H](F)C6)nc(c34)N2C1 [Example 28, 2-amino-4-((2R,12aS)-10-chloro-8-fluoro-6-(((2R,7aS)-2-fluorotetrahydro-1H-pyrrolizin-7a(5H)-yl)methoxy)-2-methyl-2,3,12,12a-tetrahydro-1H-pyrrolo[2′,1′:3,4][1,4]oxazepino[5,6,7-de]quinazolin-9-yl)-7-fluorobenzo[b]thiophene-3-carbonitrile]	74
Nc1cc(Cl)c(C(F)(F)F)c(-c2nc3c4c(nc(OC[C@@]56CCCN5C[C@H](F)C6)nc4c2F)N2CCC[C@@H]2CO3)c1 [Example 13, 3-chloro-5-((R)-7-fluoro-5-(((2R,7aS)-2-fluorotetrahydro-1H-pyrrolizin-7a(5H)-yl)methoxy)-2,3,11,11a-tetrahydro-1H-10-oxa-3a,4,6,9-tetraazanaphtho[1,8-ef]azulen-8-yl)-4-(trifluoromethyl)aniline]	648
N#Cc1c(N)sc2c(F)ccc(-c3c(Cl)c4c5c(nc(OC[C@@]67CCCN6C[C@H](F)C7)nc5c3F)N3CCC(C#N)C[C@H]3CO4)c12 (stereo partly drawn) [Example 30, (8aS)-5-(2-amino-3-cyano-7-fluorobenzo[b]thiophen-4-yl)-6-chloro-4-fluoro-2-(((2R,7aS)-2-fluorotetrahydro-1H-pyrrolizin-7a(5H)-yl)methoxy)-8,8a,9,10,11,12-hexahydropyrido[2′,1′:3,4][1,4]oxazepino[5,6,7-de]quinazoline-10-carbonitrile]	51
C#Cc1c(F)ccc2cc(O)cc(-c3nc4c5c(nc(OC[C@@]67CCCN6C[C@H](F)C7)nc5c3F)N3C[C@H](F)C[C@H]3CO4)c12 [Example 19, 4-((2R,11aS)-2,7-difluoro-5-(((2R,7aS)-2-fluorotetrahydro-1H-pyrrolizin-7a(5H)-yl)methoxy)-2,3,11,11a-tetrahydro-1H-10-oxa-3a,4,6,9-tetraazanaphtho[1,8-ef]azulen-8-yl)-5-ethynyl-6-fluoronaphthalen-2-ol]	112
C#Cc1c(F)ccc2cc(O)cc(-c3nc4c5c(nc(OC[C@@]67CCCN6C[C@H](F)C7)nc5c3F)N3CCCC[C@H]3[C@H](C)O4)c12 [Example 34, 5-ethynyl-6-fluoro-4-((5S,5aS)-1-fluoro-11-(((2R,7aS)-2-fluorotetrahydro-1H-pyrrolizin-7a(5H)-yl)methoxy)-5-methyl-5,5a,6,7,8,9-hexahydro-4-oxa-3,9a,10,12-tetraazabenzo[4,5]cyclohepta[1,2,3-de]naphthalen-2-yl)naphthalen-2-ol]	10
Cc1cc(N)cc(-c2nc3c4c(nc(OC[C@@]56CCCN5C[C@H](F)C6)nc4c2F)N2CCC[C@@H]2CCO3)c1C(F)(F)F [Example 12, 3-((R)-7-fluoro-5-(((2R,7aS)-2-fluorotetrahydro-1H-pyrrolizin-7a(5H)-yl)methoxy)-1,2,3,11,12,12a-hexahydro-10-oxa-3a,4,6,9-tetraazacyclopenta[4,5]cycloocta[1,2,3-de]naphthalen-8-yl)-5-methyl-4-(trifluoromethyl)aniline]	56
C#Cc1c(F)ccc2cc(O)cc(-c3nc4c5c(nc(OC[C@@]67CCCN6C[C@H](F)C7)nc5c3F)N3C[C@@H](O)CC[C@H]3CO4)c12 [Example 35, (5aS,8S)-2-(8-ethynyl-7-fluoro-3-hydroxynaphthalen-1-yl)-1-fluoro-11-(((2R,7aS)-2-fluorotetrahydro-1H-pyrrolizin-7a(5H)-yl)methoxy)-5,5a,6,7,8,9-hexahydro-4-oxa-3,9a,10,12-tetraazabenzo[4,5]cyclohepta[1,2,3-de]naphthalen-8-ol]	15
Nc1cc(Cl)c(C(F)(F)F)c(-c2nc3c4c(nc(OC[C@@]56CCCN5C[C@H](F)C6)nc4c2F)N2CCC(F)C2CO3)c1 (stereo partly drawn) [Example 17, 3-chloro-5-(1,7-difluoro-5-(((2R,7aS)-2-fluorotetrahydro-1H-pyrrolizin-7a(5H)-yl)methoxy)-2,3,11,11a-tetrahydro-1H-10-oxa-3a,4,6,9-tetraazanaphtho[1,8-ef]azulen-8-yl)-4-(trifluoromethyl)aniline]	509

same assay, conditions: SW620 cells, 2 hrs compound treatment

Compound	IC50 [nM]
3-chloro-5-(1-fluoro-12-(((2R,7aS)-2-fluorotetrahydro-1H-pyrrolizin-7a(5H)-yl)methoxy)-6,6a,7,8,9,10-hexahydro-5H-4-oxa-3,10a,11,13-tetraazabenzo[4,5]cycloocta[1,2,3-de]naphthalen-2-yl)-4-(trifluoromethyl)aniline [Example 8]	290
C#Cc1c(F)ccc2cc(O)cc(-c3nc4c5c(nc(OCC67CCCN6CC(F)C7)nc5c3F)N3CCC3CO4)c12 (single isomer, unassigned) [Example 18]	326
C#Cc1c(F)ccc2cc(O)cc(-c3nc4c5c(nc(OCC67CCCN6CC(F)C7)nc5c3F)N3CCC3CO4)c12 (single isomer, unassigned) [Example 20]	40
